The target of data set [1] is MCL-1 (Homo sapiens (Human), UniProt Q07820, K194A/K197A/R201A). The experiment in a line: Protein-protein interaction assay MCL-1/Noxa BH3 peptide (MCL-1 assay), TR-FRET. In kind it is binding. Particulars: MCL-1/Noxa BH3 peptide TR-FRET; median. As for the experimental part: Protein-Protein Interaction Assay: MCL-1/Noxa BH3 Peptide (MCL-1 Assay)
The dose-dependent inhibition by the compounds described in this invention of the interaction between MCL-1 and the BH3 domain of Noxa (both human) was determined using a steady state binding competition assay with time-resolved fluorescence energy transfer (TR-FRET) readout. For that purpose MCL-1 (amino acids 173-321, N-terminal fused to Maltose Binding Protein (MBP) SEQ ID 1)) and a synthetic Noxa BH3-derived peptide of sequence Biotin-PEG2-PEG2-PAELEVE-Nva-ATQLRRFGDKLNFRQKLL-amide (SEQ ID 2) served as protein receptor and tracer ligand respectively. The MBP-MCL-1 was purchased from Beryllium (Bedford, Mass., USA). The expression and purification of this protein construct has been described elsewhere (DOI:10.1371/journal.pone.0125010). The Noxa BH3-derived peptide can be obtained from e.g. Biosyntan (Berlin, Germany).
In the assay 11 different concentrations of each compound (0.1 nM, 0.33 nM, 1.1 nM, 3.8 nM, 13 nM, 44 nM, 0.15 μM, 0.51 μM, 1.7 μM, 5.9 μM and 20 μM) were typically measured as duplicates in the same microtiter plate. For that, 100-fold concentrated DMSO solutions were prepared by serial dilutions (1:3.4) of a 2 mM stock solution in a clear, 384-well microtiter plate (Greiner Bio-One, Frickenhausen, Germany). From there, 50 nl were transferred in a dark test plate (Greiner Bio-One, Frickenhausen, Germany). The assay was initiated by addition of 2 μl of a 2,5-fold concentrated MBP-MCL-1 solution (usually for a 1 nM end concentration in 5 μl reaction volume) in aqueous assay buffer [50 mM Tris/HCl pH 7, 100 mM sodium chloride (NaCl), 50 mM potassium fluoride (KF), 0.005% Tween-20, 2 mM DTT, 0.1% bovine gamma globulin (BGG)] to the compounds in the assay plate. This was followed by a 10-minute incubation step at 22° C. for pre-equilibration of the putative complex between MBP-MCL-1 and the compounds. After that, 3 μl of a 1.67-fold concentrated solution (in assay buffer) consisting of Noxa BH3-derived peptide (1 nM end concentration) and TR-FRET detection reagents [1.67 nM anti-MBP-Eu cryptate and 1.67 nM streptavidin-XL665 (both from Cisbio Bioassays, Codolet, France)], were added.
The mixture was incubated in the dark for one hour at 22° C. and then overnight at 4° C. The formation of MCL-1/Noxa complexes was determined by measuring the resonance energy transfer of the anti-MBP-Eu-cryptate antibody to the streptavidin-XL665 present in the reaction. For that purpose, the fluorescence emission at 620 nm and 665 nm after excitation at 330-350 nm was measured in a TR-FRET measuring instrument, for instance a Rubystar or a Pherastar (both from BMG Lab Technologies, Offenburg, Germany) or a Viewlux (Perkin-Elmer). The ratio of the emission at 665 nm and at 622 nm was used as indicator of the amount of MCL-1/NOXA complexes present.
The resulting data (ratio) were normalized, taking 0% inhibition as the mean value of control measurements (usually 32 data points) where all reagents were included. In this case 50 nl DMSO were used instead of compounds. A 100% inhibition corresponded to the mean value of control measurements (usually 32 data points) where all reagents except MCL-1 were included. IC50 values were determined by regression analysis based on a 4 parameter equation (minimum, maximum, IC50, Hill; Y=Max+(Min−Max)/(1+(X/IC50)^Hill) using the Screener Software (Genedata).

Data set [2] relates to SUDHL5. The experiment in a line: Induction of caspase-3/7 activity, SUDHL5 (Assay 4). In kind it is cell-based. Particulars: SUDHL5 cells. The procedure: (§1) Induction of Caspase-3/7 Activity upon Treatment of Cells with Selected Compounds
(§2) The BH3-domain of MCL-1 sequesters pro-apoptotic proteins, thereby inhibiting apoptosis. In contrast, MCL-1 inhibitors are expected to antagonize this effect leading to an increase in apoptosis, which can be determined by measuring the activity of caspase-3/7.
(§3) The activity of caspase-3/7 was determined in DLBCL (Diffuse large B-cell lymphoma) cell lines (SUDHL5 and SUDHL10) upon treatment with different compounds, using the Caspase-Glo® 3/7 reagent from Promega (G8092).
(§4) Rim wells were excluded. The cells were incubated for 3 h hours in a humidified incubator at 37° C.
(§5) For the evaluation of the results, the background measured with “medium-only” was subtracted from all other values. […] The Bella DRC Master Sheet was used to calculate EC50s, with fixed C0=1 and Cl=plateau/max induction for the reference compound.

For data set [3], the system named is SUDHL10. Put plainly: Induction of caspase-3/7 activity, SUDHL10 (Assay 4). In kind it is cell-based. Particulars: SUDHL10 cells. The procedure:
as §1, §2, §3, §4, §5

Data set [4] relates to SUDHL5. The experiment in a line: Antiproliferation assay SUDHL5 (Assay 7). In kind it is cell-based. The note with it: SUDHL5 cells, CellTiter-Glo, median, read-out: IC50 Antiproli SUDHL5 [M] (median). As for the experimental part:
(§6) Assessment of the Anti-Proliferative Effect of Compounds in Different Cell Lines
(§7) The impact of compounds on the proliferation of different cell lines was assessed using the CellTiter-Glo® Luminescent Cell Viability reagent from Promega (G7573).
(§8) In parallel, cells were plated in a reference (day 0) plate for time zero determination.
(§9) Rim wells were excluded. The cells were incubated for 72 h hours in a humidified incubator at 37° C. The day 0 plate was measured by adding 30 μL/well of CTG solution (CellTiter-Glo® Luminescent Cell Viability reagent, Promega G7573) to time zero wells in the reference plate followed by a 10 minutes incubation and luminescence reading at 0.1 ms. using the PHERAstar FS microplate reader (BMG Labtech).
(§10) After 72 h incubation, the treated plates were measured in the same way as the day 0 plate mentioned above.
(In ATP-based viability assays light output follows the ATP content of the culture.)

Data set [5] deals with SUDHL10. Put plainly: Antiproliferation assay SUDHL10 (Assay 7). The note with it: Homo sapiens, SU-DHL10; SUDHL10 cells, 72 h, CellTiter-Glo; median; read-out: IC50 Antiproli SUDHL10 [M] (median). In kind it is cell-based. As for the experimental part:
as §6, §7, §8, §9, §10

Data set [6] deals with AMO-1. Put plainly: Antiproliferation assay AMO-1 (Assay 7). Particulars: AMO-1 cells, CellTiter-Glo, single determinations, read-out: IC50 Antiproli AMO-1. In kind it is cell-based. As for the experimental part:
as §6, §7, §8, §9, §10

The subject of data set [7] is A2780. The experiment in a line: Antiproliferation assay A2780 (Assay 7). In kind it is cell-based. The note with it: A2780 cells, CellTiter-Glo, single determinations, read-out: IC50 Antiproli A2780. As for the experimental part: as §6, §7, §8, §9, §10
In data set [8] the test system is SUDHL5. Put plainly: Induction of cytotoxicity, SUDHL5 (Assay 6). Particulars: read-out: IC50 Cytotox SUDHL5 [M] (median), SUDHL5 cells, 5 h, CellTiter-Glo.
Data set [9] relates to SUDHL10. Put plainly: Induction of cytotoxicity, SUDHL10 (Assay 6). Particulars: read-out: IC50 Cytotox SUDHL10 [M] (median), SUDHL10 cells, 5 h, CellTiter-Glo.
Data set [10] deals with HMC-1-8. Put plainly: Antiproliferation assay HMC-1-8 (Assay 7). It counts as cell-based. The note with it: HMC-1-8 cells, 72 h, CellTiter-Glo; single determinations; read-out: IC50 Antiproli HMC-1-8. The procedure: as §6, §7, §8, §9, §10
For data set [11], the system named is MV-4-11. The experiment in a line: Antiproliferation assay MV-4-11 (Assay 7). It counts as cell-based. The note with it: MV-4-11 cells, 72 h, CellTiter-Glo; single determinations; read-out: IC50 Antiproli MV-4-11. As for the experimental part: as §6, §7, §8, §9, §10
[12] abbreviates: Homo sapiens, SU-DHL-5, 3 h, Caspase-Glo 3/7, median.
[13] abbreviates: Homo sapiens, SU-DHL10, 3 h, Caspase-Glo 3/7, median.

Drawing on patent US11286263B2, “Macrocyclic fluorine substituted indole derivatives” (The Broad Institute, Inc., priority 2017, dated 2022), this text covers IC50 and EC50 for five compounds.

The structures appear in SMILES notation. “And” between values parts separate entries of the source, which are not always exact repeats. Equal entries are not always repeated. Structures can show the parent of a compound that is named as a salt. Where two headings read alike, the source gives them in different places.

MCL-1, sequence (Q07820 whole entry K194A/K197A/R201A, looked up, the tested form may be a part): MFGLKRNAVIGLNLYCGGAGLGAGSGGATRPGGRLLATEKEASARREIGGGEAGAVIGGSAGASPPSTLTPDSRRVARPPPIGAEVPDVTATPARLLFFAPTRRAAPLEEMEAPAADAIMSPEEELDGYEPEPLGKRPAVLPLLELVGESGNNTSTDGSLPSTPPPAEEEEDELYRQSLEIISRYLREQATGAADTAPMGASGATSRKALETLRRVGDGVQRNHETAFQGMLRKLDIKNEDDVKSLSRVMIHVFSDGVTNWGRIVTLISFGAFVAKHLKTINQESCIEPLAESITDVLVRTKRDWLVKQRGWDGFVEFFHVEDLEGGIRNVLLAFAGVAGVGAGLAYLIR

For `Cc1c2c(nn1C)COCCCCn1c(C(=O)O)c(CCCOc3cccc4cc(F)ccc34)c3ccc(F)c-2c31` (racemic) [Example 12, (rac)-13-fluoro-1-(3-((6-fluoronaphthalen-1-yl)oxy)propyl)-11,12-dimethyl-4,5,6,7,9,11-hexahydropyrazolo[4′,3′:9,10][1]oxa[6]azacycloundecino[8,7,6-hi]indole-2-carboxylic acid], the IC50 worked out at 0.85 nM in [1]; 6.5e-07 M in data set [4] (Homo sapiens, SU-DHL-5, 72 h); 7.2e-07 M in [5]; 869 nM in [6] (72 h); 1510 nM in data set [6] (Homo sapiens, AMO1, 72 h); 4680 nM in [7] (Homo sapiens, A2780, 72 h). Besides, the IC50 in data set [8] (Homo sapiens, SU-DHL-5, 5 h) is 6e-07 M; in data set [9] (Homo sapiens, SU-DHL10, 5 h), 8.2e-07 M. The 50% effective concentration (EC50) in [2] (setting [12]) worked out at 480 nM; in data set [3] (setting [13]) it was 800 nM.
Take `CCc1nn(C)c2c1-c1c(F)ccc3c(CCCOc4cccc5cc(F)ccc45)c(C(=O)O)n(c13)CCCCOC2` (racemic) [Example 38, (rac)-12-ethyl-13-fluoro-1-(3-((6-fluoronaphthalen-1-yl)oxy)propyl)-10-methyl-4,5,6,7,9,10-hexahydropyrazolo[4′,3′:9,10][1]oxa[6]azacycloundecino[8,7,6-hi]indole-2-carboxylic acid]: the IC50 in [1] is 1.1 nM; in data set [4] (Homo sapiens, SU-DHL-5, 72 h), 9.3e-07 M; in [5], 1e-06 M; in data set [6] (72 h), 2460 nM and 1610 nM; in [6] (Homo sapiens, AMO1, 72 h), 2350 nM; in [8] (Homo sapiens, SU-DHL-5, 5 h), 1e-06 M. In addition, the IC50 in [9] (Homo sapiens, SU-DHL10, 5 h) was 1.4e-06 M. Also, the EC50 amounted to 870 nM in data set [2] (setting [12]) and 2000 nM in data set [3] (setting [13]).
`CCc1c2c(nn1C)COCCCCn1c(C(=O)O)c(CCCOc3cccc4cc(F)ccc34)c3ccc(F)c-2c31` (single isomer, unassigned; enantiomer 2) [Example 25, 3-ethyl-4-fluoro-7-{3-[(6-fluoronaphthalen-1-yl)oxy]propyl}-2-methyl-2,10,11,12,13,15-hexahydropyrazolo[4′,3′:9,10][1,6]oxazacycloundecino[8,7,6-hi]indole-8-carboxylic acid (enantiomer 2)]: the IC50 in data set [1] worked out at 13 nM; in [4] (72 h) it was 8.1e-06 M; in data set [6] (72 h), 32800 nM; in data set [10], 20900 nM; in data set [8] it was 1.2e-05 M; in data set [9] it was 2.2e-05 M. In addition, in data set [3] (3 h, Caspase-Glo 3/7, median), the EC50 was over 33000 nM.
As for `CCc1nn(C)c2c1-c1c(F)ccc3c(CCCOc4cccc5cc(F)ccc45)c(C(=O)O)n(c13)CCCCOC2` (single isomer, unassigned; enantiomer 2) [Example 40, 3-ethyl-4-fluoro-7-{3-[(6-fluoronaphthalen-1-yl)oxy]propyl}-1-methyl-1,10,11,12,13,15-hexahydropyrazolo[4′,3′:9,10][1,6]oxazacycloundecino[8,7,6-hi]indole-8-carboxylic acid-N-ethylethanamine salt (enantiomer 2)], the IC50 in [1] was 40 nM; in [4] (72 h), 1.4e-05 M; in data set [11], 14300 nM and 11600 nM; in [6] (72 h), over 33000 nM; in data set [7] (72 h) it was 29600 nM; in data set [8], 2.3e-05 M. The IC50 in data set [9] was over 2.5e-05 M. In addition, the EC50 in data set [2] (3 h, Caspase-Glo 3/7, median) is 21000 nM; in data set [3] (3 h, Caspase-Glo 3/7, median), over 33000 nM.
Take `Cc1c2c(nn1C)CNCCCCn1c(C(=O)O)c(CCCOc3cccc4ccccc34)c3ccc(F)c-2c31` (single isomer, unassigned; enantiomer 2) [Example 49, 4-fluoro-2,3-dimethyl-7-{3-[(naphthalen-1-yl)oxy]propyl}-10,11,12,13,14,15-hexahydro-2H-pyrazolo[3′,4′:8,9][1,6]diazacycloundecino[10,11,1-hi]indole-8-carboxylic acid (enantiomer 2)]: the 50% inhibitory concentration (IC50) in [1] is 40 nM; in [4] (72 h), 1e-05 M; in data set [11] it was 18900 nM and 23300 nM; in [6] (72 h) it was over 33000 nM; in [7] (72 h), 15100 nM; in data set [8] it was over 2.7e-05 M. The concentration for half-maximal inhibition (IC50) in [9] is over 3.3e-05 M. Moreover, the 50% effective concentration (EC50) is over 33000 nM in [2] (3 h, Caspase-Glo 3/7, median) and over 33000 nM in [3] (3 h, Caspase-Glo 3/7, median).

As a reminder, the IC50 is the concentration that gives 50% inhibition. As a reminder, the EC50 is the midpoint of the concentration-response curve. Low values mean a more potent agent, high ones a less potent agent.
